Measurements published in publication PMC9145865, “Effects of Rare Phytocannabinoids on the Endocannabinoid System of Human Keratinocytes” (International Journal of Molecular Sciences, 2022).
Entries after “also recorded” stand apart in the source; their conditions may differ. Where two headings read alike, the source gives them in different places.

Columns and labels:
PPARδ = experiment: Western blot protein expression of PPARδ; format: cell-based, human; conditions: HaCaT cells, half-IC50 dose, 24 h, vs. control
Experimental: (§1) The HaCaT cells were seeded into 6-well plates at a density of 4 × 10^4 per well, incubated overnight and then treated with the selected pCBs (6.0 µM of CBG, 4.0 µM of CBC, 9.0 µM of THCV and 13.0 µM of CBGA) for 24 h. The cell pellets were collected and then lysed in an ice-cold lysis buffer (10 mM of EDTA, 50 mM of pH 7.4 Tris–HCl, 150 mM of sodium chloride, 1% Triton-X-100, 2 mM of phenylmethylsulfonyl fluoride, 2 mM of sodium orthovanadate, […] of leupeptin and […] of aprotinin). The amount of protein was determined using the Bio-Rad Protein assay (Bio-Rad Laboratories, Hemel Hempstead, UK). An equal amount of protein (60 µg) was loaded onto 10% sodium dodecyl sulfate–polyacrylamide gels and blotted onto polyvinylidene fluoride sheets (Amersham Biosciences, Piscataway, NJ, USA). The membranes were blocked with dried 5% non-fat milk for 1 h and then incubated with suitable primary antibodies. Detection was performed using Azure Biosystems c400 (Dublin, CA, USA). The membranes were stripped using the Restore Western Blot Stripping Buffer from Thermo Fisher Scientific (Waltham, MA, USA) for 30 min under agitation at room temperature, according to the manufacturer’s instructions. The primary antibodies (Table 6) that were used were obtained from the following sources: […]

CB2 [1] = experiment: Western blot protein expression of CB2; format: cell-based, human; conditions: HaCaT cells, half-IC50 dose, 24 h, vs. control
Experimental: as §1

DAGLα/β = experiment: DAGL α/β activity assay in membranes of treated cells; format: cell-based, human; conditions: HaCaT cells, half-IC50 amount, 24 h, vs. control
Experimental: DAGL α/β Assay: The HaCaT cells were seeded into 6-well plates at a density of 4 × 10^4 per well, incubated overnight and then treated with the selected pCBs (6.0 µM of CBG, 4.0 µM of CBC, 9.0 µM of THCV and 13.0 µM of CBGA) for 24 h. The cell pellets were collected and DAGL α/β activity was determined using membranes that were isolated from these cells using the synthetic substrate p-nitrophenyl butyrate (pNPB) (8 mM) in 50 mM of HEPES pH 7.3 at room temperature for 20 min [68]. The DAGLα/β inhibitor KT172 (1 μM), which was purchased from Sigma-Aldrich (St. Louis, MO, USA), was used to fully erase the enzyme activity as a control.

HaCaT cells = experiment: Apoptosis, DNA fragmentation ELISA; format: cell-based, human; conditions: 24 h
Experimental: The HaCaT cells were seeded into 96-well plates at a density of 1 × 10^4 per well, incubated overnight and then treated with the selected pCBs at different concentrations (0.5 μM, 1.0 μM, 2.5 μM, 5.0 μM, 10 μM and 25 μM) for 24 h. After treatment, apoptotic cell death was quantified for specific compounds using ELISA assays, which were based on the evaluation of DNA fragmentation through an immunoassay for histone-associated DNA fragments in the cell cytoplasm. The specific determination of mono- and oligonucleosomes in the cytoplasmic fraction of cell lysates was performed by measuring the absorbance values at 405 nm, as reported in [60].

CB2 [2] = conditions: cited from earlier work
TRPV1 = experiment: Western blot protein expression of TRPV1; format: cell-based, human; conditions: HaCaT cells, half-IC50 dose, 24 h, vs. control
Experimental: as §1

MAGL = MAGL activity assay in membranes of treated cells; format: cell-based, human; conditions: HaCaT cells, half-IC50 amount, 24 h, vs. control
Experimental: MAGL Assay: The HaCaT cells were seeded into 6-well plates at a density of 4 × 10^4 per well, incubated overnight and then treated with the selected pCBs (6.0 µM of CBG, 4.0 µM of CBC, 9.0 µM of THCV and 13.0 µM of CBGA) for 24 h. The cell pellets were collected and MAGL activity was determined using membranes that were isolated from these cells using the synthetic substrate arachidonoyl-1-thio-glycerol (200 μM) in 10 mM of Tris and 1 mM of EDTA pH 7.2 at 4 °C for 15 min [68]. The MAGL inhibitor JZL184 (4 μM), which was purchased from Sigma-Aldrich (St. Louis, MO, USA), was used to fully erase the enzyme activity as a control.

CB1/2 = experiment: Receptor binding assay on adherent living cells with [3H]CP 55,940; design: species or system human; conditions: HaCaT cells treated 24 h with half-IC50 amount; for total CB1/2 binding activity (in words): vs. control; for CB1/2 Binding Activity (pmol/mg of Protein): 2.5 nM [3H]CP 55,940, mean ± SEM, n = 3
Experimental: We also sought to investigate the effects of half-IC50 doses of pCBs on the functional activity of eCB-binding receptors (CB1/2 and TRPV1) and the AEA and 2-AG metabolizing enzymes (NAPE-PLD, FAAH, DAGLα/β and MAGL) when used to treat HaCaT cells for 24 h, for which an assay procedure was available. To this end, a CB1/2 ligand binding assay was performed using the radiolabeled synthetic cannabinoid [^3H]CP 55,940, which acts as a full agonist of both cannabinoid receptors with high and roughly equal affinity.
The HaCaT cells were seeded into 12-well plates at a density of 2 × 10^4 per well, incubated overnight and then treated with the selected pCBs (6.0 µM of CBG, 4.0 µM of CBC, 9.0 µM of THCV and 13.0 µM CBGA) for 24 h. Each well of the 12-well plates was washed twice with 1 mL of PBS and treated with 500 µL of incubation buffer (50 mM of Tris–HCl, 5 mM of MgCl2 and 1 mM of CaCl2; 0.2% BSA; pH 7.4), preheated to 37 °C and then incubated for 15 min at 37 °C. Then, 2.5 nM of [^3H]CP 55,940 was added and incubation occurred for 1 h in an incubator that was set at 37 °C. Afterward, the buffer was carefully removed and the cells were washed again with an ice-cold washing buffer (50 mM of Tris–HCl and 500 mM of NaCl; 0.1% BSA; pH 7.4). Unspecific binding was determined in the presence of 1 µM of synthetic agonist CP 55,940 [60]. Then, 500 µL of 0.5 M NaOH was added to each well and the cells were pipetted up and down several times in order to be lysed. The resuspension was then transferred to a 10-mL scintillation vial with a liquid scintillation cocktail and radioactivity was immediately read using a scintillation β-counter (Tri-Carb 2810 TR, Perkin Elmer, Waltham, MA, USA), as described in [40].

PPARα = experiment: Western blot protein expression of PPARα; format: cell-based, human; conditions: HaCaT cells, half-IC50 dose, 24 h, vs. control
Experimental: as §1

NAPE-PLD = experiment: Western blot protein expression of NAPE-PLD; format: cell-based, human; conditions: HaCaT cells, half-IC50 dose, 24 h, vs. control
Experimental: as §1

CCCc1cc(O)c2c(c1)OC(C)(C)[C@@H]1CCC(C)=C[C@@H]21 [THCV, Δ^9-tetrahydrocannabivarin]
PPARδ protein expression (in words) (PPARδ): significantly reduced
Protein Expression PPARδ (PPARδ): ↓++++
CB2 protein expression (in words) (CB2 [1]): reducing
Protein Expression CB2 (CB2 [1]): ↓+++
DAGLα/β activity (DAGLα/β): increased DAGLα/β activity remarkably
DNA fragmentation (hallmark of apoptosis) (HaCaT cells; all doses (0.5-25 µM)): ineffective
activity at CB2 (CB2 [2]; in vivo and in vitro, ref [53]): partial CB2 agonist
Protein Expression TRPV1 (TRPV1): ↑++++
activity of MAGL (MAGL): significantly increased
total CB1/2 binding activity (in words) (CB1/2): significantly increased
CB1/2 Binding Activity (pmol/mg of Protein) (CB1/2): 8.187 ± 0.302 pmol/mg of Protein
PPARα protein expression (in words) (PPARα): significantly reduced
Protein Expression PPARα (PPARα): ↓++
NAPE-PLD protein expression (in words) (NAPE-PLD): significantly increased
Protein Expression NAPE-PLD (NAPE-PLD): ↑++++

CCCCCc1cc(O)c(C/C=C(\C)CCC=C(C)C)c(O)c1C(=O)O [CBGA, cannabigerolic acid]
PPARδ protein expression (in words) (PPARδ): significantly reduced
Protein Expression PPARδ (PPARδ): ↓++++
CB2 protein expression (in words) (CB2 [1]): reducing
Protein Expression CB2 (CB2 [1]): ↓++++
DNA fragmentation (hallmark of apoptosis) (HaCaT cells; 25 µM): significant increase
activity at CB2 (CB2 [2]; ref [52]): partial agonists
Protein Expression TRPV1 (TRPV1): ↑++++
activity of MAGL (MAGL): significantly increased
total CB1/2 binding activity (in words) (CB1/2): significantly increased
CB1/2 Binding Activity (pmol/mg of Protein) (CB1/2): 8.373 ± 0.410 pmol/mg of Protein
PPARα protein expression (in words) (PPARα): significantly reduced
Protein Expression PPARα (PPARα): ↓++++
NAPE-PLD protein expression (in words) (NAPE-PLD): significantly increased
Protein Expression NAPE-PLD (NAPE-PLD): NAPE-PLD ↑++++ FAAH ↑++++ DAGLα ↑++++ MAGL ↑++++

CCCCCc1cc(O)c2c(c1)OC(C)(CCC=C(C)C)C=C2 (centres unmarked) [CBC, cannabichromene]
PPARδ protein expression (in words) (PPARδ): significantly reduced
Protein Expression PPARδ (PPARδ): ↓++++
CB2 protein expression (in words) (CB2 [1]): reducing
Protein Expression CB2 (CB2 [1]): ↓+
DAGLα/β activity (DAGLα/β): increased DAGLα/β activity remarkably
activity at CB2 (CB2 [2]; ref [28],[50],[51]): CB2 agonist
Protein Expression TRPV1 (TRPV1): ↑++++
activity of MAGL (MAGL): significantly increased
total CB1/2 binding activity (in words) (CB1/2): significantly increased
CB1/2 Binding Activity (pmol/mg of Protein) (CB1/2): 10.380 ± 0.750 pmol/mg of Protein
PPARα protein expression (in words) (PPARα): significantly reduced
Protein Expression PPARα (PPARα): ↓++
NAPE-PLD protein expression (in words) (NAPE-PLD): significantly increased

CCCCCc1cc(O)c(C/C=C(\C)CCC=C(C)C)c(O)c1 [CBG, cannabigerol]
PPARδ protein expression (in words) (PPARδ): significantly reduced
Protein Expression PPARδ (PPARδ): ↓+++
CB2 protein expression (in words) (CB2 [1]): reducing
Protein Expression CB2 (CB2 [1]): ↓+
DAGLα/β activity (DAGLα/β): increased DAGLα/β activity remarkably
DNA fragmentation (hallmark of apoptosis) (HaCaT cells; 10 µM): induced the same effect
DNA fragmentation (hallmark of apoptosis) (HaCaT cells; 25 µM): significant increase
activity at CB2 (CB2 [2]; ref [52]): partial agonists
Protein Expression TRPV1 (TRPV1): ↑++++
activity of MAGL (MAGL): significantly increased
total CB1/2 binding activity (in words) (CB1/2): significantly increased; also recorded: doubled
CB1/2 Binding Activity (pmol/mg of Protein) (CB1/2): 8.027 ± 0.681 pmol/mg of Protein
NAPE-PLD protein expression (in words) (NAPE-PLD): significantly increased
Protein Expression NAPE-PLD (NAPE-PLD): ↑++++
